The values below come from PubChem BioAssay (NCI).

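Five compound concentrations were applied to cells in 96-well plates for 48 hours; endpoints were derived by simple linear interpolation of the resulting dose-response curve. GI50 is the concentration that inhibits growth by half. TGI: total growth inhibition.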

One assay concerns SK-MEL-2 melanoma. Description: NCI anticancer screen, dose series, 48 h.
With `CC(C)(C)c1ccc(Oc2nccc(-c3c(-c4ccc(F)cc4)ncn3C3CCNCC3)n2)cc1`, the GI50 was 5.21 µM and the TGI is 9.1 µM.

Molecule `O=C(O)C(/C=C/c1ccccc1)c1ccccc1` (configuration not stated) registered a TGI of more than 100 µM.

On to `COc1ccc(-c2cn(-c3cc(OC)c(OC)c(OC)c3)c(SCc3ccccc3)n2)cc1OC`, for which the GI50 is more than 100 µM and the TGI was more than 100 µM.

Take `COc1ccc(-c2nc(-c3nc4ccc(OC)cc4[nH]3)c3ccccn23)cc1`: the GI50 is 4.07 µM and the TGI was 16.5 µM.

`Cc1ccc(S(=O)(=O)N/N=C/c2c(O)ccc3ccccc23)cc1`: the TGI stood at 49.1 µM.

In the case of `COc1cc(NC(C)CCCNC2CN3CCC2CC3)c2ncccc2c1` (configuration not stated), the GI50 is 23.3 µM and the TGI is 52.4 µM.

With `CN[C@@H](C)C(=O)N[C@H](C(=O)N1CCC[C@H]1C(=O)Nc1snnc1-c1ccccc1)C1CCCCC1`, the GI50 was 27.4 µM and the TGI is more than 63.9 µM.

For the molecule `FC(F)(F)c1ccc(Nc2nc(-c3c(C(F)(F)F)nc4ccccn34)cs2)cc1`, the GI50 was 0.0734 µM and the TGI stood at 6.76 µM.

As to `COc1cc(CSc2nc3ccc(C)cc3c(=O)n2-c2ccccc2)cc(OC)c1OC`, the GI50 is 3.52 µM and the TGI is more than 100 µM.

`CN(CCCn1c2c(c3ccccc3c1=O)C(=O)c1ccccc1-2)CCCn1c2c(c3ccccc3c1=O)C(=O)c1ccccc1-2`: the GI50 was 27.6 µM and the TGI is more than 51.8 µM.

Turning to `C(#Cc1ccccc1C#Cc1cccs1)c1cccs1`, the GI50 is 41.7 µM and the TGI is more than 100 µM.

The molecule `COc1ccc(C2=CC(c3ccc4c(c3)OCO4)c3c(c4ccccc4oc3=O)O2)cc1OC` (configuration not stated) gave a TGI of more than 100 µM.

As to `C=C1C(=O)O[C@H]2[C@H]1CC/C(COC(=O)NCc1cn(C)c3ccccc13)=C\CC[C@@]1(C)O[C@@H]21`, the GI50 is 2.55 µM and the TGI stood at 7.79 µM.

Molecule `CCS(CC)(CC)CC1CCCC2=CCC(P(=O)(c3ccccc3)c3ccccc3)CC21` (configuration not stated) had a TGI of 33.8 µM.

As for `CC(=O)OCC1OC(n2cnc(C(N)=S)c2N)C(OC(C)=O)C1OC(C)=O` (configuration not stated), the TGI was more than 100 µM.

As to `Cn1cc(C(=O)NCCC(=N)N)cc1NC(=O)C1=[N+](C)C=C(NC(=O)c2cccc(C(=O)NC3=CC(C(=O)Nc4cc(C(=O)NCCC(=N)N)cn4C)=[N+](C)C3)c2)C1`, the TGI is more than 100 µM.

In the case of `Nc1c(C(=O)c2cccc(-c3ccncc3)c2)cnn1-c1ccc(F)cc1F`, the GI50 was 6.43 µM and the TGI was more than 19.7 µM.

A further assay concerns SK-MEL-28 melanoma. Description: NCI anticancer screen, dose series, 48 h.
Consider `CC(C)(C)c1ccc(Oc2nccc(-c3c(-c4ccc(F)cc4)ncn3C3CCNCC3)n2)cc1`, for which the GI50 is 4.29 µM and the TGI was found to be 8.06 µM.

In turn, `O=C(O)C(/C=C/c1ccccc1)c1ccccc1` (configuration not stated) displayed a TGI of more than 100 µM.

`COc1ccc(-c2cn(-c3cc(OC)c(OC)c(OC)c3)c(SCc3ccccc3)n2)cc1OC`: the GI50 is more than 100 µM and the TGI was more than 100 µM.

Turning to `COc1ccc(-c2nc(-c3nc4ccc(OC)cc4[nH]3)c3ccccn23)cc1`, the GI50 is 18.5 µM and the TGI is more than 100 µM.

`Cc1ccc(S(=O)(=O)N/N=C/c2c(O)ccc3ccccc23)cc1` yielded a TGI of more than 100 µM.

Turning to `COc1cc(NC(C)CCCNC2CN3CCC2CC3)c2ncccc2c1` (configuration not stated), the GI50 is 11.3 µM and the TGI was found to be 23.7 µM.

Regarding `CN[C@@H](C)C(=O)N[C@H](C(=O)N1CCC[C@H]1C(=O)Nc1snnc1-c1ccccc1)C1CCCCC1`, the GI50 was 23 µM and the TGI came out at 61.6 µM.

Consider `FC(F)(F)c1ccc(Nc2nc(-c3c(C(F)(F)F)nc4ccccn34)cs2)cc1`, for which the GI50 was 1.05 µM and the TGI stood at 16.9 µM.

As for `COc1cc(CSc2nc3ccc(C)cc3c(=O)n2-c2ccccc2)cc(OC)c1OC`, the GI50 was 2.8 µM and the TGI is more than 100 µM.

Consider `CN(CCCn1c2c(c3ccccc3c1=O)C(=O)c1ccccc1-2)CCCn1c2c(c3ccccc3c1=O)C(=O)c1ccccc1-2`, for which the GI50 was 1.28 µM.

Consider `C(#Cc1ccccc1C#Cc1cccs1)c1cccs1`, for which the GI50 is more than 100 µM and the TGI is more than 100 µM.

Consider `COc1ccc(C2=CC(c3ccc4c(c3)OCO4)c3c(c4ccccc4oc3=O)O2)cc1OC` (configuration not stated), for which the TGI was more than 100 µM.

Turning to `C=C1C(=O)O[C@H]2[C@H]1CC/C(COC(=O)NCc1cn(C)c3ccccc13)=C\CC[C@@]1(C)O[C@@H]21`, the GI50 was 1.43 µM and the TGI amounted to 3.01 µM.

`CCS(CC)(CC)CC1CCCC2=CCC(P(=O)(c3ccccc3)c3ccccc3)CC21` (configuration not stated) displayed a TGI of 28.4 µM.

As to `CC(=O)OCC1OC(n2cnc(C(N)=S)c2N)C(OC(C)=O)C1OC(C)=O` (configuration not stated), the TGI was more than 100 µM.

`Cn1cc(C(=O)NCCC(=N)N)cc1NC(=O)C1=[N+](C)C=C(NC(=O)c2cccc(C(=O)NC3=CC(C(=O)Nc4cc(C(=O)NCCC(=N)N)cn4C)=[N+](C)C3)c2)C1` showed a TGI of more than 100 µM.

`Nc1c(C(=O)c2cccc(-c3ccncc3)c2)cnn1-c1ccc(F)cc1F`: the GI50 is 16.7 µM and the TGI is more than 25 µM.

Another assay deals with EKVX NSCLC. Description: NCI anticancer screen, dose series, 48 h.
`CC(C)(C)c1ccc(Oc2nccc(-c3c(-c4ccc(F)cc4)ncn3C3CCNCC3)n2)cc1`: the GI50 was 3.6 µM and the TGI stood at 7.36 µM.

`O=C(O)C(/C=C/c1ccccc1)c1ccccc1` (configuration not stated): the TGI is more than 100 µM.

Turning to `COc1ccc(-c2cn(-c3cc(OC)c(OC)c(OC)c3)c(SCc3ccccc3)n2)cc1OC`, the GI50 was more than 100 µM and the TGI was more than 100 µM.

`Cc1ccc(S(=O)(=O)N/N=C/c2c(O)ccc3ccccc23)cc1`: the TGI was more than 100 µM.

Turning to `COc1cc(NC(C)CCCNC2CN3CCC2CC3)c2ncccc2c1` (configuration not stated), the GI50 is 12.1 µM and the TGI worked out at 26.7 µM.

Consider `FC(F)(F)c1ccc(Nc2nc(-c3c(C(F)(F)F)nc4ccccn34)cs2)cc1`, for which the GI50 is 0.158 µM and the TGI came out at 7.84 µM.

For `COc1cc([N+](=O)[O-])c(OC)cc1-c1nc2sc(Cl)cn2c1/C(N)=N/C(=N)N`, the GI50 was 9.66 µM and the TGI came to 40.9 µM.
